The test system of data set [1] is Rattus norvegicus. As to the kind of experiment: Antiinflammatory activity in Wistar rat assessed as protection against carrageenan-induced paw edema at 10 mg/kg, po after 3 to 7 hrs by pletismometric analysis relative to vehicle-treated control. It is filed as functional. (In general: The carrageenan paw model is a standard test of acute inflammation.)
In data set [2] the test system is Rattus norvegicus. As to the kind of experiment: Antiinflammatory activity in Wistar rat assessed as protection against carrageenan-induced paw edema at 10 mg/kg, po after 2 hrs by pletismometric analysis relative to vehicle-treated control. Type of data set: functional.
Data set [3] can be described thus: Solubility of the compound in water. It is filed as physicochemical. To be noted: buffer.
Data set [4] is described as follows: Solubility of the compound in DMSO. It is filed as physicochemical.
For data set [5], the system named is Rattus norvegicus. The experiment in a line: Antiinflammatory activity in Wistar rat assessed as protection against carrageenan-induced paw edema at 200 mg/kg, ip measured after 2 to 7 hrs by pletismometric analysis relative to vehicle-treated control. It is filed as functional. Conditions: route intraperitoneal.
In data set [6] the test system is Rattus norvegicus. As to the kind of experiment: Antiinflammatory activity in Wistar rat assessed as protection against carrageenan-induced paw edema at 200 mg/kg, ip measured after 1 hr by pletismometric analysis relative to vehicle-treated control. Conditions: route intraperitoneal. It is filed as functional.
In data set [7] the test system is Rattus norvegicus. The experiment in a line: Antiinflammatory activity in Wistar rat assessed as protection against carrageenan-induced paw edema at 200 mg/kg, ip by pletismometric analysis. Type of data set: functional, organism-based. Also on record: dose 200 mg/kg. To be noted: TDE = time-dependent effect.
The test system of data set [8] is Rattus norvegicus. The experiment in a line: Antiinflammatory activity in Wistar rat assessed as protection against carrageenan-induced paw edema at 200 mg/kg, po after 4 to 7 hrs by pletismometric analysis relative to vehicle-treated control. It is filed as functional.
For data set [9], the system named is Rattus norvegicus. The experiment in a line: Antiinflammatory activity in Wistar rat assessed as protection against carrageenan-induced paw edema at 200 mg/kg, po after 3 hrs by pletismometric analysis relative to vehicle-treated control. It is filed as functional.
In data set [10] the test system is Rattus norvegicus. The experiment in a line: Antiinflammatory activity in Wistar rat assessed as protection against carrageenan-induced paw edema at 200 mg/kg, po by pletismometric analysis. Type of data set: functional, organism-based. To be noted: TDE = time-dependent effect. Also on record: dose 200 mg/kg.
Data set [11] deals with Rattus norvegicus. The experiment in a line: Antiinflammatory activity in Wistar rat assessed as protection against carrageenan-induced paw edema at 200 mg/kg, po after 2 to 7 hrs by pletismometric analysis relative to vehicle-treated control. It is filed as functional, organism-based. Also on record: dose 200 mg/kg.
The test system of data set [12] is Rattus norvegicus. The experiment in a line: Antiinflammatory activity in Wistar rat assessed as protection against carrageenan-induced paw edema at 200 mg/kg, ip measured after 3 to 7 hrs by pletismometric analysis relative to vehicle-treated control. More on the design: dose 200 mg/kg. Type of data set: functional, organism-based.
The subject of data set [13] is Rattus norvegicus. The experiment in a line: Antiinflammatory activity in Wistar rat assessed as protection against carrageenan-induced paw edema at 200 mg/kg, ip measured after 2 hrs by pletismometric analysis relative to vehicle-treated control. Type of data set: functional. Conditions: route intraperitoneal.
In data set [14] the test system is Rattus norvegicus. As to the kind of experiment: Antiinflammatory activity in Wistar rat assessed as protection against carrageenan-induced paw edema at 200 mg/kg, po after 1 hr by pletismometric analysis relative to vehicle-treated control. Type of data set: functional.
For data set [15], the system named is Rattus norvegicus. The experiment in a line: Antiinflammatory activity in Wistar rat assessed as protection against carrageenan-induced paw edema at 200 mg/kg, po after 2 hrs by pletismometric analysis relative to vehicle-treated control. Type of data set: functional.
The test system of data set [16] is Rattus norvegicus. As to the kind of experiment: Antiinflammatory activity in Wistar rat assessed as protection against carrageenan-induced paw edema at 200 mg/kg, po after 7 hrs by pletismometric analysis relative to vehicle-treated control. It is filed as functional.
Data set [17] has as its system Rattus norvegicus. The experiment in a line: Antiinflammatory activity in Wistar rat assessed as protection against carrageenan-induced paw edema at 200 mg/kg, ip measured after 2 to 7 hrs by pletismometric analysis. Type of data set: functional, organism-based. More on the design: dose 200 mg/kg.
Data set [18] has as its system Rattus norvegicus. The experiment in a line: Antiinflammatory activity in Wistar rat assessed as protection against carrageenan-induced paw edema at 200 mg/kg, po after 3 to 7 hrs by pletismometric analysis relative to vehicle-treated control. Type of data set: functional, organism-based. More on the design: dose 200 mg/kg.

The values below come from ChEMBL document CHEMBL2429779, “Synthesis and anti-inflammatory activity of three nitro chalcones” (Bioorg Med Chem Lett, 2013).

Active and inactive are the calls of the source. The calls are words filed in the database; no cut-off is given here.

Take `Cc1cnc(NC(=O)C2=C(O)c3ccccc3S(=O)(=O)N2C)s1` [MELOXICAM]: the Activity in the data set with Rattus norvegicus [1] came out at 50%. In addition, the “%max” value in the data set with Rattus norvegicus [2] was found to be 59.3%.

As for `O=C(/C=C/c1ccccc1)c1ccccc1[N+](=O)[O-]`, the solubility result in data set [3] is given as “Insoluble”; in data set [4], “soluble”. Also, the Activity was 50% with Rattus norvegicus [5], “tde” in the data set on Rattus norvegicus [7], 30% with Rattus norvegicus [8] and “tde” with Rattus norvegicus [10]. Also, the “%max” value in the data set on Rattus norvegicus [6] turned out to be 58.2%; in the data set with Rattus norvegicus [9], 34.8%.

`O=C(/C=C/c1ccccc1)c1ccc([N+](=O)[O-])cc1`: the outcome in the data set with Rattus norvegicus [11] and with Rattus norvegicus [12] was Active. For the same compound, the solubility entry in [3] is listed as “Insoluble”; in data set [4], “soluble”. Further, the entries for the “%max” value in the data set on Rattus norvegicus [13] and in the data set with Rattus norvegicus [14] were 43.2% and 38%, respectively. The Activity result in the data set with Rattus norvegicus [7] was “tde”; in the data set on Rattus norvegicus [15], 20%; in the data set on Rattus norvegicus [10], “tde”.

`O=C(/C=C/c1ccccc1)c1cccc([N+](=O)[O-])c1`: the Activity was 0% in the data set on Rattus norvegicus [16], “tde” in the data set with Rattus norvegicus [7] and “tde” in the data set on Rattus norvegicus [10]. The solubility result in data set [3] is given as “Insoluble”; in [4] it was “soluble”. Also, the result in the data set with Rattus norvegicus [17] was Active. Further, the “%max” value in the data set with Rattus norvegicus [6] amounted to 68%; in the data set on Rattus norvegicus [15], 31%. Also, the result with Rattus norvegicus [18] was inactive.
